Consider 14 compounds from US20240383954A1, “PEPTIDE INHIBITORS OF INTERLEUKIN-23 RECEPTOR AND THEIR USE TO TREAT INFLAMMATORY DISEASES” (Janssen Biotech, Inc., priority 2020, published 2024).

Positions of bridges follow the written chain, without caps; N, C: chain ends. Non-standard residues stand in square brackets, D forms with d. Residues, ends and D or L forms follow the SMILES beside them. *: point of attachment. 2Nal = N[C@@H](Cc1ccc2ccccc2c1)C(=O)O; Propanoyl(3,3,3-F3) = O=C(CC(F)(F)F)*; AEF = NCCOc1ccc(C[C@H](N)C(=O)O)cc1; αMeF = C[C@](N)(Cc1ccccc1)C(=O)O; Pen = CC(C)(S)[C@H](N)C(=O)O; Thp = NC1(C(=O)O)CCOCC1; Pentanoyl = CCCCC(=O)*; Propionyl = CCC(=O)*

A word on the IC50: it is the concentration that gives 50% inhibition. Read a low IC50 as higher potency.
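Also: cryopreserved PBMCs stimulated at 37 °C in 5% CO2, then lysed, with phosphorylated STAT3 quantified in lysates using a phospho-STAT panel kit.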

This assay deals with IL-23R (Homo sapiens, UniProt Q5VWK5). Kind of assay: cell-based. The conditions noted are these: PBMC pSTAT3 IC50 (nM), PBMCs from healthy donors, IL-23 5 ng/mL, 30 minutes, phosphorylated STAT3.
Chain of IL-23R (Q5VWK5 24-629): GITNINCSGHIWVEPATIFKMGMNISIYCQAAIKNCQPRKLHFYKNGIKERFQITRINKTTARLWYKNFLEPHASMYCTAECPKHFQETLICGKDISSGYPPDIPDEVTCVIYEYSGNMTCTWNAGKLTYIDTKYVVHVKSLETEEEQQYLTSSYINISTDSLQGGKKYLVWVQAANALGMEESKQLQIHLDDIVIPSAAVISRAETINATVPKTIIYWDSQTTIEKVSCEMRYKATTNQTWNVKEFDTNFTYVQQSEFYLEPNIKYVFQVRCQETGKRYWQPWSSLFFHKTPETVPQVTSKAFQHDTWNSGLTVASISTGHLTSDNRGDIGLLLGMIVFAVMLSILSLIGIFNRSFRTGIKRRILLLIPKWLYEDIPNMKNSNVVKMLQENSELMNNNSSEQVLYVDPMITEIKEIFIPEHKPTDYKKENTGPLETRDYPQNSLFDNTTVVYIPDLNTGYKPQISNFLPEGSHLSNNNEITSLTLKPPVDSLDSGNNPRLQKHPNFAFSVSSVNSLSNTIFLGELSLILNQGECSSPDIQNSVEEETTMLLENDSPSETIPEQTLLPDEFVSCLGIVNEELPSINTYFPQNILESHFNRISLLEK
In the case of `CCC(=O)N[C@H](CCCNC(=N)N)C(=O)N[C@H]1CCSC[C@@H](C(=O)N[C@@H](Cc2ccc(OCCN)cc2)C(=O)N[C@@H](Cc2ccc3ccccc3c2)C(=O)NC2(C(=O)N[C@@H](CCC(=O)O)C(=O)N[C@@H](CC(N)=O)C(=O)NC3(C(N)=O)CCOCC3)CCOCC2)NC(=O)[C@H](CCC(N)=O)NC(=O)[C@H](Cc2c[nH]c3ccccc23)NC(=O)[C@H]([C@@H](C)O)NC(=O)[C@H](CCC(N)=O)NC1=O` [Compound 2, [Propionic_acid]-[(D)Arg]-[Abu]-Q-T-W-Q-[Cys]-Phe[4-(2-aminoethoxy)]-[2-Nal]-[THP]-E-N-[THP]-NH2], the IC50 was 3.3 nM.

With `CCC(=O)N[C@H](CCCNC(=N)N)C(=O)N[C@@H]1C(=O)N[C@@H](CCC(N)=O)C(=O)N[C@@H]([C@@H](C)O)C(=O)N[C@@H](Cc2c[nH]c3ccccc23)C(=O)N[C@@H](CCC(N)=O)C(=O)N[C@H](C(=O)N[C@@H](Cc2ccc(OCCN)cc2)C(=O)N[C@@H](Cc2ccc3ccccc3c2)C(=O)NC2(C(=O)N[C@@H](CCC(=O)O)C(=O)N[C@@H](CC(N)=O)C(=O)N[C@@](C)(Cc3ccccc3)C(N)=O)CCOCC2)C(C)(C)SSC1(C)C` [Compound 3, [Propionic_acid]-[(D)Arg]-[Pen]-Q-T-W-Q-[Pen]-Phe[4-(2-aminoethoxy)]-[2-Nal]-[THP]-E-N-[a-MePhe]-NH2] (Propionyl-[dR][Pen]QTWQ[Pen][AEF][2Nal][Thp]EN[αMeF]-NH2; disulfide 2-7), the half-maximal inhibitory concentration (IC50) is 40 nM.

Consider `C[C@@H](O)[C@@H]1NC(=O)[C@H](CCC(N)=O)NC(=O)[C@@H](NC(=O)[C@@H](CCCNC(=N)N)NC(=O)CC(F)(F)F)C(C)(C)SSC(C)(C)[C@@H](C(=O)N[C@@H](Cc2ccc(OCCN)cc2)C(=O)N[C@@H](Cc2ccc3ccccc3c2)C(=O)NC2(C(=O)N[C@@H](CCC(=O)O)C(=O)N[C@@H](CC(N)=O)C(=O)NC3(C(N)=O)CCOCC3)CCOCC2)NC(=O)[C@H](CCC(N)=O)NC(=O)[C@H](Cc2c[nH]c3ccccc23)NC1=O` [Compound 5, [3,3,3-Trifluoropropionic acid]-[(D)Arg]-[Pen]-Q-T-W-Q-[Pen]-Phe[4-(2-aminoethoxy)]-[2-Nal]-[THP]-E-N-[THP]-NH2] ({Propanoyl(3,3,3-F3)}-[dR][Pen]QTWQ[Pen][AEF][2Nal][Thp]EN[Thp]-NH2; disulfide 2-7), for which the IC50 was 4.7 nM.

Regarding `CCC(=O)N[C@H](CCCNC(=N)N)C(=O)N[C@@H]1C(=O)N[C@@H](CCC(N)=O)C(=O)N[C@@H]([C@@H](C)O)C(=O)N[C@@H](Cc2c[nH]c3ccccc23)C(=O)N[C@@H](CCC(N)=O)C(=O)N[C@H](C(=O)N[C@@H](Cc2ccc(OCCN)cc2)C(=O)N[C@@H](Cc2ccc3ccccc3c2)C(=O)NC2(C(=O)N[C@@H](CCCCNC(=O)C(C)(C)C)C(=O)N[C@@H](CC(N)=O)C(=O)NC3(C(N)=O)CCOCC3)CCOCC2)C(C)(C)SSC1(C)C` [Compound 7, [Propionic_acid]-[(D)Arg]-[Pen]-Q-T-W-Q-[Pen]-Phe[4-(2-aminoethoxy)]-[2-Nal]-[THP]-[Lys(COtBu)]-N-[THP]-NH2], the IC50 was found to be 8.6 nM.

In the case of `CCCCC(=O)N[C@H](CCCNC(=N)N)C(=O)N[C@@H]1C(=O)N[C@@H](CCC(N)=O)C(=O)N[C@@H]([C@@H](C)O)C(=O)N[C@@H](Cc2c[nH]c3ccccc23)C(=O)N[C@@H](CCC(N)=O)C(=O)N[C@H](C(=O)N[C@@H](Cc2ccc(OCCN)cc2)C(=O)N[C@@H](Cc2ccc3ccccc3c2)C(=O)NC2(C(=O)N[C@@H](CCC(=O)O)C(=O)N[C@@H](CC(N)=O)C(=O)NC3(C(N)=O)CCOCC3)CCOCC2)C(C)(C)SSC1(C)C` [Compound 9, [Pentanoic acid]-[(D)Arg]-[Pen]-Q-T-W-Q-[Pen]-Phe[4-(2-aminoethoxy)]-[2-Nal]-[THP]-E-N-[THP]-NH2] (Pentanoyl-[dR][Pen]QTWQ[Pen][AEF][2Nal][Thp]EN[Thp]-NH2; disulfide 2-7), the IC50 was 29 nM.

In turn, `CCC(=O)N[C@H](CCCNC(=N)N)C(=O)N[C@@H]1C(=O)N[C@@H](CCC(N)=O)C(=O)N[C@@H]([C@@H](C)O)C(=O)N[C@@H](Cc2c[nH]c3ccccc23)C(=O)N[C@@H](CCC(N)=O)C(=O)N[C@H](C(=O)N[C@@H](Cc2ccc(OCCN)cc2)C(=O)N[C@@H](Cc2ccc3ccccc3c2)C(=O)NC2(C(=O)N[C@@H](CCC(=O)O)C(=O)N[C@@H](CC(N)=O)C(=O)NC3(C(N)=O)CCOCC3)CCOCC2)C(C)(C)SSC1(C)C` [Compound 10, [Propionic_acid]-[(D)Arg]-[Pen]-Q-T-W-Q-[Pen]-Phe[4-(2-aminoethoxy)]-[2-Nal]-[THP]-E-N-[THP]-NH2] (Propionyl-[dR][Pen]QTWQ[Pen][AEF][2Nal][Thp]EN[Thp]-NH2; disulfide 2-7) displayed an IC50 of 4.6 nM.

As for `CC(=O)N[C@H](CCCNC(=N)N)C(=O)N[C@H]1CCSC[C@@H](C(=O)N[C@@H](Cc2ccc(OCCN)cc2)C(=O)N[C@@H](Cc2ccc3ccccc3c2)C(=O)NC2(C(=O)N[C@@H](CCC(=O)O)C(=O)N[C@@H](CC(N)=O)C(=O)N[C@@H](Cc3ccccc3)C(N)=O)CCOCC2)NC(=O)[C@H](CCC(N)=O)NC(=O)[C@H](Cc2c[nH]c3ccccc23)NC(=O)[C@H]([C@@H](C)O)NC(=O)[C@H](CCC(N)=O)NC1=O` [Compound 17, Ac-[(D)Arg]-[Abu]-Q-T-W-Q-[Cys]-Phe[4-(2-aminoethoxy)]-[2-Nal]-[THP]-E-N-F-NH2], the midpoint of inhibition, the IC50, lay at 3.4 nM.

`COc1ccc(C[C@H](NC(=O)[C@@H]2CSCC[C@H](NC(=O)[C@H](N)CCCNC(=N)N)C(=O)N[C@@H](CCC(N)=O)C(=O)N[C@@H]([C@@H](C)O)C(=O)N[C@@H](Cc3c[nH]c4ccccc34)C(=O)N[C@@H](CCC(N)=O)C(=O)N2)C(=O)N[C@@H](Cc2ccc3ccccc3c2)C(=O)NC2(C(=O)N[C@@H](CCC(=O)O)C(=O)N[C@@H](CC(N)=O)C(=O)NC3(C(N)=O)CCOCC3)CCOCC2)cc1` [Compound 22, [(D)Arg]-[Abu]-Q-T-W-Q-[Cys]-[Phe(4-OMe)]-[2-Nal]-[THP]-E-N-[THP]-NH2] showed an IC50 of 22 nM.

In turn, `COc1ccc(C[C@H](NC(=O)[C@@H]2CSCC[C@H](NC(=O)[C@@H](CCCNC(=N)N)NC(=O)Cn3cc(CCCF)nn3)C(=O)N[C@@H](CCC(N)=O)C(=O)N[C@@H]([C@@H](C)O)C(=O)N[C@@H](Cc3c[nH]c4ccccc34)C(=O)N[C@@H](CCC(N)=O)C(=O)N2)C(=O)N[C@@H](Cc2ccc3ccccc3c2)C(=O)NC2(C(=O)N[C@@H](CCC(=O)O)C(=O)N[C@@H](CC(N)=O)C(=O)NC3(C(N)=O)CCOCC3)CCOCC2)cc1` [Compound 25, FPrpTriazoleMe_Acid-[(D)Arg]-[Abu]-Q-T-W-Q-[Cys]-[Phe(4-OMe)]-[2-Nal]-[THP]-E-N-[THP]-NH2] came in with an IC50 of 21 nM.

On to `CC(=O)N[C@H](CCCNC(=N)N)C(=O)N[C@H]1CCSC[C@@H](C(=O)N[C@@H](Cc2ccc(OCCN)cc2)C(=O)N[C@@H](Cc2ccc3ccccc3c2)C(=O)NC2(C(=O)N[C@@H](CCC(N)=O)C(=O)N[C@@H](CC(N)=O)C(=O)N[C@@](C)(Cc3ccccc3)C(N)=O)CCOCC2)NC(=O)[C@H](CCC(N)=O)NC(=O)[C@H](Cc2c[nH]c3ccccc23)NC(=O)[C@H]([C@@H](C)O)NC(=O)[C@H](CCC(N)=O)NC1=O` [Compound 30, Ac-[(D)Arg]-[Abu]-Q-T-W-Q-[Cys]-Phe[4-(2-aminoethoxy)]-[2-Nal]-[THP]-Q-N-[a-MePhe]-NH2], for which the IC50 amounted to 25 nM.

`CC(=O)N[C@H](CCCNC(=N)N)C(=O)N[C@H]1CCSC[C@@H](C(=O)N[C@@H](Cc2ccc(OCCN)cc2)C(=O)N[C@@H](Cc2ccc3ccccc3c2)C(=O)NC2(C(=O)N[C@@](C)(CCC(=O)O)C(=O)N[C@@H](CC(N)=O)C(=O)N[C@@](C)(Cc3c[nH]c4ccccc34)C(N)=O)CCOCC2)NC(=O)[C@H](CCC(N)=O)NC(=O)[C@H](Cc2c[nH]c3ccccc23)NC(=O)[C@H]([C@@H](C)O)NC(=O)[C@H](CCC(N)=O)NC1=O` [Compound 31, Ac-[(D)Arg]-[Abu]-Q-T-W-Q-[Cys]-Phe[4-(2-aminoethoxy)]-[2-Nal]-[THP]-[aMeGlu]-N-ameW-NH2] had a concentration for half-maximal inhibition (IC50) of 16 nM.

The compound `CC(=O)N[C@H](CCCNC(=N)N)C(=O)N[C@H]1CCSC[C@@H](C(=O)N[C@@H](Cc2ccc(OCCN)cc2)C(=O)N[C@@H](Cc2ccc3ccccc3c2)C(=O)NC2(C(=O)N[C@@](C)(CCC(=O)O)C(=O)N[C@@H](CC(N)=O)C(=O)N[C@@H](Cc3ccc(C(N)=O)cc3)C(N)=O)CCOCC2)NC(=O)[C@H](CCC(N)=O)NC(=O)[C@H](Cc2c[nH]c3ccccc23)NC(=O)[C@H]([C@@H](C)O)NC(=O)[C@H](CCC(N)=O)NC1=O` [Compound 34, Ac-[(D)Arg]-[Abu]-Q-T-W-Q-[Cys]-Phe[4-(2-aminoethoxy)]-[2-Nal]-[THP]-[aMeGlu]-N-[Phe(4-CONH2)]-NH2] showed an IC50 of 5.8 nM.

In turn, `CC(=O)N[C@H](CCCNC(=N)N)C(=O)N[C@H]1CCSC[C@@H](C(=O)N[C@@H](Cc2ccc(OCCN)cc2)C(=O)N[C@@H](Cc2ccc3ccccc3c2)C(=O)NC2(C(=O)N[C@@](C)(CCC(=O)O)C(=O)N[C@@H](CC(N)=O)C(=O)N[C@@H](Cc3ccc4ccccc4c3)C(N)=O)CCOCC2)NC(=O)[C@H](CCC(N)=O)NC(=O)[C@H](Cc2c[nH]c3ccccc23)NC(=O)[C@H]([C@@H](C)O)NC(=O)[C@H](CCC(N)=O)NC1=O` [Compound 35, Ac-[(D)Arg]-[Abu]-Q-T-W-Q-[Cys]-Phe[4-(2-aminoethoxy)]-[2-Nal]-[THP]-[aMeGlu]-N-[2-Nal]-NH2] registered an IC50 of 25 nM.

For `CC(=O)N[C@H](CCCNC(=N)N)C(=O)N[C@H]1CCSC[C@@H](C(=O)N[C@@H](Cc2ccc(OCCN)cc2)C(=O)N[C@@H](Cc2ccc3ccccc3c2)C(=O)NC2(C(=O)N[C@@](C)(CCC(=O)O)C(=O)N[C@@H](CC(N)=O)C(=O)N[C@@](C)(Cc3ccc(F)cc3)C(N)=O)CCOCC2)NC(=O)[C@H](CCC(N)=O)NC(=O)[C@H](Cc2c[nH]c3ccccc23)NC(=O)[C@H]([C@@H](C)O)NC(=O)[C@H](CCC(N)=O)NC1=O` [Compound 36, Ac-[(D)Arg]-[Abu]-Q-T-W-Q-[Cys]-Phe[4-(2-aminoethoxy)]-[2-Nal]-[THP]-[aMeGlu]-N-[aMe(4-F)Phe]-NH2], inhibition was half-maximal at 14 nM (IC50). This IC50 lies about 1.8-fold lower than the previous one.
